One may read the IC50 as the concentration that gives 50% inhibition. Low readings indicate inhibition by little substance, high ones a need for much substance.

Where “and” joins values, the source holds several entries; their conditions need not be identical. Identical values can stand only once.

The subject of this test is P. falciparum 3D7 growth, pLDH absorbance. Put plainly: P. falciparum 3D7 growth inhibition, dose response, strain 3D7 (AID 2305).

With `Cn1cc(C2CCN(CCCCCNC(=O)/C=C/c3ccc(Cl)c(Cl)c3)CC2)c2cc(O)ccc21`, the IC50 is 940 nM. Consider `CN1CC[C@@H](Oc2cc(Nc3nc(-c4ccc(C#N)cc4)cs3)ccc2Cl)C1`, for which the IC50 was 820 nM. Next, `C=CC[C@H](C[C@H](O)[C@H](Cc1ccccc1)NC(=O)c1ccc(-n2cccn2)cc1)C(=O)NC1CCCCC1`: 810 nM. Next, `CN1CCCC1CCNc1ncc2c(-c3ccc(NC(=O)Nc4cc(C(F)(F)F)ccc4F)cc3)nn(C)c2n1` (configuration not stated): 340 nM; `CCc1cccc2sc(N3CCN(C(=O)c4ccc([N+](=O)[O-])o4)CC3)nc12`: 770 nM; `COc1ccc(Cl)cc1NC(=O)C(C)N1CCN(S(=O)(=O)c2ccccc2F)CC1` (configuration not stated): 670 nM.

The compound `CC1(CCc2ccccc2)N=C(N)N(Cc2ccccc2)C(=O)C1c1ccc(Cl)c(Cl)c1` (configuration not stated) registered an IC50 of 810 nM.

Take `O=C(C=Cc1ccc(F)c(Br)c1)NC1CCC(CN2CCC(c3c[nH]c4ccccc34)CC2)CC1` (configuration not stated): the IC50 was 790 nM and 840 nM. Next, `CNCc1cccc(-c2ccc3ccnc(N)c3c2)c1`: 90 nM; `CS(=O)(=O)N1CC2(CCN(CCC(NC(=O)Nc3ccccc3)c3ccc(Cl)c(Cl)c3)CC2)c2ccccc21` (configuration not stated): 820 nM. Next, `Nc1cc(C=Cc2ccc([N+](=O)[O-])s2)nc2ccccc12`: 760 nM. As to `Clc1ncccc1-c1nc(NCCC(c2ccccc2)c2ccccc2)no1`, the IC50 stood at 1000 nM.

Turning to `COC(=O)c1cccc(CNCc2ccc(-c3ccc(-c4nc5ccc(F)cc5[nH]4)s3)cc2)c1`, the IC50 was determined as 590 nM. `Cc1nnsc1C(=O)Nc1cccc(-c2ccc(-c3nc4ccc(F)cc4[nH]3)s2)c1` gave an IC50 of 890 nM. Next, `CC(C)CCN1CCCN(Cc2cccc(NC(=O)c3cc4ccccc4s3)c2)CC1`: 920 nM. The same measure for `Nc1ncnc2occ(-c3ccc(NC(=O)Nc4cc(C(F)(F)F)ccc4F)cc3)c12`: 1720 nM; for `NC(=O)c1ccccc1OCC(=O)Nc1ccc(-c2cccc(-c3nc4ccc(C(F)(F)F)cc4[nH]3)c2)cc1`: 980 nM; for `Cc1ccccc1C1CCN(c2ccc(NC(=O)c3ccc(Cl)nc3)cc2)CC1`: 1030 nM. Take `COc1c(C2CCN(CCCCNC(=O)c3ccc(-c4ccc(Cl)cc4)c(O)c3)CC2)ccc2c1CCCC2`: the IC50 stood at 230 nM. In the case of `O=C(c1ccc(Cl)cc1)N1CCCC(C(=O)N(Cc2nnc(-c3ccccc3Cl)o2)C2CC2)C1` (configuration not stated), the IC50 stood at 230 nM. Compound `CN1CCN(c2cccc(NC(=O)c3ccc(-c4ccc(C#N)cc4)cc3)c2)CC1` gave an IC50 of 1260 nM. The same measure for `N=c1n(Cc2ccccc2)c2ccccc2n1CC(O)c1ccc(Cl)cc1` (configuration not stated): 880 nM; for `Cc1cc(CN2CCC(C(=O)Nc3ccc(-c4nc5ccccc5[nH]4)cc3)CC2)oc1C`: 1450 nM; for `Cc1[nH]c(C)c(-c2ccc(-c3ccc(OCC(F)(F)F)cc3)nc2)c(=O)c1Cl`: 390 nM. In turn, `NC1CCCN(Cc2ccc(-c3cccc(-c4nc5ccc(F)cc5[nH]4)c3)cc2)C1` (configuration not stated) returned an IC50 of 640 nM. `CN1CCN(C(C(=O)NCc2cc(Cl)cc(Cl)c2)c2ccccc2-c2ccsc2)CC1` (configuration not stated) displayed an IC50 of 940 nM. Next, `CC(C)CNCc1ccc(-c2ccc(CN(C(=O)NC3CCCCC3)C3CCN(Cc4ccccc4)CC3)cc2)cc1`: 780 nM; `CN1CCN(CCCN(Cc2csc(-c3ccc(CNCc4ccccc4)cc3)n2)C(=O)c2cc(F)cc(F)c2)CC1`: 710 nM. For the compound `CCc1cc(-c2onc(C(F)(F)F)c2-c2ccccc2)c(O)cc1OC`, the IC50 came out at 790 nM. On to `O=C(NC1CC1)c1ccc(N2CCCCN2CCc2ccccc2)c(C(F)(F)F)c1`, for which the IC50 was 620 nM.

Regarding `CCOc1ccc2c(NN=Cc3ccccc3OC)cc(C)nc2c1`, the IC50 came out at 500 nM.

Compound `O=C1SC(=Cc2ccc(O)c(O)c2)C(=O)N1c1ccccc1` had an IC50 of 1200 nM. For `O=C(Cn1c(CCc2cccc(F)c2F)cc(=O)c2cccnc21)N(CCN1CCCC1)Cc1ccc(-c2ccc(C(F)(F)F)cc2)cc1`, the IC50 was 890 nM. Compound `CN1CCc2cc(I)c(O)cc2C1Cc1ccccc1Cl` (configuration not stated) gave an IC50 of 790 nM. `Cn1c2ccccc2c2c3ccccc3c(CNC(CO)(CO)CO)cc21` registered an IC50 of 520 nM. The same measure for `Nc1nc(N)c2cc(NS(=O)(=O)c3ccc(-c4ccccc4)cc3)ccc2n1`: 700 nM.

`O=C(CCc1cnc[nH]1)Nc1ccc(-c2cccc(-c3nc4ccccc4[nH]3)c2)cc1` yielded an IC50 of 350 nM.

Compound `CCCCNS(=O)(=O)c1ccc(NC(=O)c2cc([N+](=O)[O-])ccc2Cl)cc1` returned a half-maximal inhibitory concentration (IC50) of 900 nM. Turning to `COc1ccc(C2CCN(CCCCNC(=O)c3ccc(NC(=O)c4ccc(Cl)cc4)cc3)CC2)c(C)c1`, the IC50 was 750 nM. The same measure for `COc1ccc(C(=O)CCC(=O)N(CCSC(C)(C)C)Cc2ccc(-c3ccc(CNCCc4ccc(S(C)(=O)=O)cc4)cn3)cc2)cc1F`: 630 nM; for `Cc1cccc2[nH]c(-c3cccc(-c4cccc(NC(=O)c5cn(C)c(=O)n5C)c4)c3)nc12`: 500 nM; for `CCN(CC)CCNc1ccnc2[nH]c3ccc(Cl)cc3c12`: 240 nM.

Consider `CCCC(=O)Nc1ccc(Nc2nc(C)cc(N3CCCC3)n2)cc1`, for which the 50% inhibitory concentration (IC50) was found to be 1490 nM.

In turn, `Cc1[nH]c(C)c(-c2ccc(-c3ccc(F)cc3)cc2)c(=O)c1Cl` yielded an IC50 of 660 nM. As for `CN(C)CCN(C)Cc1ccc(-c2ccc(NC(=O)c3cccc(C#N)c3)cc2)cc1`, the 50% inhibitory concentration (IC50) stood at 1270 nM. With `COc1cccc(-n2ncc3c(N/N=C/c4ccc(CN(C)CCN(C)C)cc4)ncnc32)c1`, the IC50 amounted to 890 nM. For `COc1ccc2nccc([C@@H](O)CN3CCC(NC(=O)/C=C/c4ccc(F)c5ccccc45)CC3)c2c1`, the IC50 came out at 180 nM.

Turning to `COc1ccc2c(=O)c(C3CCC(c4ccc(Cl)cc4)CC3)c(C)[nH]c2c1` (configuration not stated), the IC50 worked out at 650 nM.

`Nc1c(Cl)cc(C(O)CNCCCCCOCCc2ccccc2)cc1C(F)(F)F` (configuration not stated) displayed an IC50 of 980 nM.

For the compound `O=C(/C=C/c1ccc(Cl)cc1)NCCCCCN1CCC(C(=O)Nc2ccc(Cl)cc2)CC1`, the IC50 was determined as 830 nM. The compound `CN1CCC(Oc2ccc(CN3CC[C@H](NC(=O)c4ccc(Cl)c(Cl)c4)C3)c3ccccc23)C1` (some centres not stated) had an IC50 of 880 nM. Next, `Cc1ccc(/C=C/C(=O)NC2CCC(CN3CCC(c4c[nH]c5ccccc45)CC3)CC2)cc1` (configuration not stated): 920 nM and 800 nM; `CN(C(=O)Cc1ccc(Cl)cc1)C1CCN(CCCCCNC(=O)/C=C/c2ccc(Cl)c(Cl)c2)CC1`: 720 nM; `Cc1[nH]c(C)c(-c2ccc(Oc3ccc(Cl)cc3Cl)cc2)c(=O)c1Br`: 300 nM. Next, `COc1ccc(NC(=O)NC2CCN(c3ccnc4cc(Cl)ccc34)C2)cc1` (configuration not stated): 100 nM; `CN(CCCc1c[nH]c2ccccc12)CC1CCN(C(=O)/C=C/c2ccc(Cl)c(Cl)c2)CC1`: 750 nM; `Cc1cccc2[nH]c(-c3cccc(-c4cccc(NC(=O)NCc5cccc(F)c5)c4)c3)nc12`: 450 nM.

Consider `CN1CCN(c2ccc(Nc3nccc(-c4cnn5ncccc45)n3)cc2Cl)CC1`, for which the IC50 worked out at 830 nM. Next, `Cc1cc(CN2CCN(CCOC(c3ccccc3)c3ccccc3)CC2)ccc1O`: 930 nM.

For `CCCC(C)Nc1nc(C)cc(N[C@@H](CC(C)C)C(=O)NC2CCCC2)n1` (some centres not stated), the IC50 amounted to 1080 nM.

`O=C(/C=C/c1ccc(Cl)c(Cl)c1)NCCCCCN1CCC(NS(=O)(=O)c2cc(Cl)cc(Cl)c2)CC1` displayed an IC50 of 1240 nM. The same measure for `NC1CCCN(Cc2ccc(-c3cccc(-c4nc5ccccc5[nH]4)c3)cc2)C1` (configuration not stated): 720 nM. Next, `Cc1cc(OCCCN2CCC(NS(=O)(=O)c3ccc(Cl)c(Cl)c3)CC2)c2ccccc2n1`: 900 nM.

The compound `CC(CCCCC(=O)Nc1ccc(C(F)(F)F)cc1)NCC(O)c1cccc(Cl)c1` (configuration not stated) yielded an IC50 of 280 nM. Next, `Cc1cccc2[nH]c(-c3ccc(-c4cccc(CNCCNC(=O)c5ccnn5C)c4)cc3)nc12`: 400 nM; `O=S(=O)(c1ccccc1)n1ccc2cc(Nc3ncnc4cc(C#C[C@H]5CCCN5)sc34)ccc21`: 1070 nM; `CCN(CC)C(=O)C1CCN(C(C(=O)N2CCN(CC(=O)N3CCCC3)CC2)c2cc3ccccc3o2)CC1` (configuration not stated): 710 nM. The same measure for `Brc1ccc(C=NNc2nc3ccccc3[nH]2)cc1`: 700 nM; for `CCC(CC)N1C(=O)C(c2ccccc2)(c2ccccc2)N=C1N`: 800 nM. Next, `CN=C(NO)NCCN(C)C`: 1180 nM; `CCc1c(CCNCCCCCCNCCc2ccc(OC)cc2)ccc(OC)c1OC`: 870 nM. In turn, `Cc1ccc(C)c(NC(=O)NCCNc2ccnc(Nc3ccc(F)cc3)n2)c1` gave an IC50 of 820 nM.

Turning to `COc1ccc(Cc2c(Cl)nc3nc(N)nc(N)c3c2C)c(OC)c1OC`, the 50% inhibitory concentration (IC50) was 720 nM.

`Cc1[nH]c2cc(F)ccc2c1C1=CCN(CCCCC2(C)C(=O)Nc3c(F)cccc32)CC1` (configuration not stated) displayed an IC50 of 400 nM. Compound `COc1cc(CN2CCC(NC(=O)[C@H](Cc3ccccc3)NC(=O)Nc3ccc(Oc4ccccc4)cc3)C2)ccc1O` (some centres not stated) gave an IC50 of 810 nM. Take `CNCCCn1c(N(C)C)nc2cc(-n3cnc4cc(-c5ccc(Cl)cc5)sc4c3=O)ccc21`: the IC50 was determined as 1140 nM. Next, `COc1cccc(-c2csc(C(=O)NCC3CCN(Cc4ccc(C(C)C)cc4)C3)c2)c1` (configuration not stated): 1390 nM.

`COc1ccc(C[C@H](C)NC[C@H](O)c2cccc(Cl)c2)cc1F` showed an IC50 of 990 nM.

Regarding `O=C(NCCCCN1CCN(c2cccc3ccccc23)CC1)c1ccc(NC(=O)c2ccc(Cl)cc2)cc1`, the IC50 turned out to be 360 nM. With `Oc1ccccc1CN1CCC2(CCCN(Cc3ccccc3F)C2)C1` (configuration not stated), the IC50 was determined as 680 nM. For `Cc1ccc(-c2ccn(Cc3ccc(OCc4ccccc4)cc3)n2)cn1` (tested in a mixture with another compound), the IC50 came out at 670 nM. Turning to `Cc1cccc2[nH]c(-c3ccc(-c4ccc(CNCC5CCCO5)cc4)s3)nc12` (configuration not stated), the IC50 was 740 nM. With `Cc1cccc2[nH]c(-c3cccc(-c4cccc(NC(=O)c5cnc[nH]5)c4)c3)nc12`, the IC50 was determined as 260 nM. Take `C=CCc1ccc(C2CCN(CCCCNC(=O)c3ccc(NC(=O)c4ccc(Cl)cc4)cc3)CC2)cc1`: the IC50 worked out at 1120 nM. Next, `CN1CC=C(c2c[nH]c3ccc(Oc4ccccc4)cc23)CC1`: 250 nM; `CC[C@H]1C[N+]2([O-])CC[C@@H]1C[C@H]2[C@H](O)c1cc(-c2ccccc2)nc2ccc(OC)cc12`: 840 nM.

As to `CC1CCCN(c2ccc(NC(=O)c3cccs3)cc2[N+](=O)[O-])C1` (configuration not stated), the IC50 came out at 670 nM.

The record behind these values is PubChem BioAssay AID2305 (GlaxoSmithKline (GSK), 2010).
